Tests used:
Human HDAC2 = biological target: T1, Human HDAC2 (Homo sapiens, UniProt Q92769); assay: HDAC2 biochemical assay, AMC-labeled peptide substrate; details: read-out: HDAC Isoform IC50 (nM) 2
T1 construct: full length with C-terminal GST-tag; GST (C); host or cells: baculovirus expression system
How it was run: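 Full-length human HDAC2 with C-terminal GST tag, baculovirus-expressed, at 0.07 ng/ul with 50 μM RHKK(Ac)AMC substrate in Tris-HCl pH8.0 buffer with BSA, 1% DMSO final. Incubated 1 hour at 30° C with compounds, then developer added; fluorescence read at 360/460 Ex/Em.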

[1] = test system: acetylated α-tubulin in A549 lung adenocarcinoma cells; assay: Acetylated α-tubulin in-cell western (ICW) assay; assay type: cell-based; details: Homo sapiens, 16 h exposure, relative to 40 μM scriptaid positive control, read-out: EC50 Ac-α-tubulin, A549 cells
Method: Acetylated α-Tubulin and Histone H3 in-Cell Western (ICW) Assays
A549 cells were maintained in DMEM (Life Technologies)+10% FBS+2 mM glutamine & penicillin (10 μg/mL) and streptomycin ([…]. 10,000 A549 cells per well were plated into 96 well tissue culture plates (Corning) and incubated at 37° C. overnight in a humidified atmosphere containing 5% CO2 prior to addition of compounds. Compounds (dissolved in 100% DMSO) were diluted into cell culture media at 2× final assay concentration. 2× compound or DMSO (negative control) were added to cells (final DMSO concentration 0.4%). Untreated control wells received media. For acetylated α-tubulin assays, 40 μM scriptaid was used as a positive control. For acetylated histone H3 assays, 40 μM Trichostatin A (TSA) was used as a positive control. Cells were exposed to compound at 37° C. in a humidified atmosphere containing 5% CO2 for 16 h.
Measurement of the impact of compounds on levels of acetylated α-tubulin and histone H3 was performed using specific antibodies and near-infrared immunofluorescent dyes. Briefly, media was removed from wells of assay plates. Cells were washed once with PBS and fixed in 3.7% formaldehyde PBS solution at room temperature for 20 min. Cells were then permeabilised by washing 5 times in 0.1% triton-X-100 PBS at room temperature with gentle agitation for 5 min per wash. Non-specific antibody staining was blocked by the addition of Odyssey blocking buffer (Li-Cor) for 1.5 h at room temperature with gentle agitation. Cells were then incubated with primary antibody (mouse monoclonal anti-acetylated α-tubulin (clone 6-11B-1), Sigma or rabbit polyclonal anti-acetylated histone H3, Millipore) diluted in Odyssey blocking buffer at 4° C. with gentle shaking overnight (no antibody control and secondary antibody only wells were incubated with Odyssey blocking buffer only). Cells were washed five times with 0.1% tween PBS and labelled with secondary antibody (IR dye 800CW-conjugated goat anti mouse IgG or -goat anti rabbit IgG, Li-Cor) and cell stains Sapphire700 (Li-Cor) and Draq5 (Biostatus) diluted in Odyssey blocking buffer at room temperature in the dark with gentle shaking for 1 h (no antibody control wells were incubated with Odyssey blocking buffer only and secondary antibody only with diluted secondary antibody but no cell stains). Cells were washed with 0.1% Tween PBS five times and scanned using a Li-Cor Odyssey SA plate reader in 700 and 800 nm channels. Acetylated α-tubulin or histone H3 signal was normalised to cell number using the cell stain signal. Percentage increase in acetylated α-tubulin or histone H3 after compound treatment over the mean of DMSO treated controls, relative to scriptaid and TSA positive controls, respectively was calculated. EC50 values were calculated using GraphPad Prism software and nonlinear regression with 0% bottom and 100% top constraints.

Human HDAC10 = biological target: T2, Human HDAC10 (Homo sapiens, UniProt Q969S8); assay: HDAC10 biochemical assay, AMC-labeled peptide substrate; details: read-out: HDAC Isoform IC50 (nM) 10
T2 construct: Human HDAC10 (a.a. 1-481); GST (N); His (C); host or cells: baculovirus expression system
T2 sequence (Q969S8 1-481): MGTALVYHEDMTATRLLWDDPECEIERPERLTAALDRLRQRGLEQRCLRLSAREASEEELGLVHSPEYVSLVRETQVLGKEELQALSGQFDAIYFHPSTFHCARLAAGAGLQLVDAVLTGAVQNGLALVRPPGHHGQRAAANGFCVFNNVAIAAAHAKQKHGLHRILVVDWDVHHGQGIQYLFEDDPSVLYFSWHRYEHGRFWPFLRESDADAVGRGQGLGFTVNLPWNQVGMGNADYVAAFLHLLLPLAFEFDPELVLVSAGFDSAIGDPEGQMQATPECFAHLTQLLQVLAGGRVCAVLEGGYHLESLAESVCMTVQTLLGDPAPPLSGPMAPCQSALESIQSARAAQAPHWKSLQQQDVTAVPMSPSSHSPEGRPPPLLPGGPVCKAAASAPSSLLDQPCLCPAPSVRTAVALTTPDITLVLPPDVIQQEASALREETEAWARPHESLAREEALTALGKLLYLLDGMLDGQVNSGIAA
How it was run: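 Baculovirus-expressed GST/His-tagged human HDAC10 (aa 1-481), 12 ng/ul, incubated with 50 μM RHKK(Ac)AMC in Tris pH 8.0 buffer with BSA and 1% DMSO, 2 h at 30 °C. Developer then releases AMC, read at 360/460 nm.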

[2] = test system: acetylated histone H3 in A549 lung adenocarcinoma cells; assay: Acetylated histone H3 in-cell western (ICW) assay; assay type: cell-based; details: Homo sapiens, 16 h exposure, relative to 40 μM Trichostatin A positive control, read-out: EC50 Ac-histone H3, A549 cells
How it was run: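 A549 cells exposed to compound for 16 h at 37 °C (0.4% DMSO final), then fixed and immunostained for acetylated α-tubulin or histone H3 with near-infrared detection, signal normalised to cell stain. Response expressed relative to DMSO controls and to 40 μM scriptaid (tubulin) or 40 μM TSA (H3); EC50 by constrained nonlinear regression.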

T1 sequence (Q92769 whole entry, canonical isoform): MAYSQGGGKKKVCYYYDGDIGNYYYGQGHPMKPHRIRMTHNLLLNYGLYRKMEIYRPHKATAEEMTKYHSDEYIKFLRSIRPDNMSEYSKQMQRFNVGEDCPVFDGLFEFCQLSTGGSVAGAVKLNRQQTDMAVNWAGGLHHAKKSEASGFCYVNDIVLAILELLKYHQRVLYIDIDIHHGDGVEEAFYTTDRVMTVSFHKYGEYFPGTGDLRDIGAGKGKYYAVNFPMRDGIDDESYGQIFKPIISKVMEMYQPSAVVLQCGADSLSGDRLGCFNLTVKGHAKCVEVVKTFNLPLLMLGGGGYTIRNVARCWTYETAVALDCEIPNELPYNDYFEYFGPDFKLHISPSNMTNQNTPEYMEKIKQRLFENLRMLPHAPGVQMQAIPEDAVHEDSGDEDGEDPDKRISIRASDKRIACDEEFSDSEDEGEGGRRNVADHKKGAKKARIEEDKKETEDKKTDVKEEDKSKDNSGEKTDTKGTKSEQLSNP

SMILES | IC50 (Human HDAC2) | EC50 [1] | IC50 (Human HDAC10) | EC50 [2]
FC(F)(F)c1nc(-c2ccc(CN(c3ccccn3)c3cnccn3)s2)no1 [Example V, N-(Pyridin-2-yl)-N-({5-[5-(trifluoromethyl)-1,2,4-oxadiazol-3-yl]thiophen-2-yl}methyl)pyrazin-2-amine] | > 10000 nM |  | > 10000 nM | 
FC(F)(F)c1nc(-c2ccc(CN(c3cncnc3)c3cnccn3)s2)no1 [Example CR, N-(Pyrazin-2-yl)-N-({5-[5-(trifluoromethyl)-1,2,4-oxadiazol-3-yl]thiophen-2-yl}methyl)pyrimidin-5-amine] | > 10000 nM |  | > 10000 nM | 
FC(F)(F)c1nc(-c2ccc(CN(c3cnccn3)c3ccc(N4CCCC4)nn3)s2)no1 [Example DI, N-(Pyrazin-2-yl)-6-(pyrrolidin-1-yl)-N-({5-[5-(trifluoromethyl)-1,2,4-oxadiazol-3-yl]thiophen-2-yl}methyl)pyridazin-3-amine] | > 10000 nM | 1 to 10 µM | > 10000 nM | ≥ 10 µM

Second part, the compound after the results:

IC50 (Human HDAC2) | EC50 [1] | IC50 (Human HDAC10) | EC50 [2] | SMILES
> 10000 nM | ≥ 10 µM | > 10000 nM | ≥ 10 µM | FC(F)(F)c1ccc(N(Cc2ccc(-c3noc(C(F)(F)F)n3)s2)c2cnccn2)nn1 [Example DH, N-(Pyrazin-2-yl)-6-(trifluoromethyl)-N-({5-[5-(trifluoromethyl)-1,2,4-oxadiazol-3-yl]thiophen-2-yl}methyl)pyridazin-3-amine]
 | ≥ 10 µM |  | ≥ 10 µM | CS(=O)(=O)c1nccc(N(Cc2ccc(-c3noc(C(F)(F)F)n3)s2)c2cnccn2)n1 [Example CE, 2-Methanesulfonyl-N-(pyrazin-2-yl)-N-({5-[5-(trifluoromethyl)-1,2,4-oxadiazol-3-yl]thiophen-2-yl}methyl)pyrimidin-4-amine]
> 10000 nM |  | > 10000 nM |  | FC(F)(F)c1nc(-c2ccc(CN(c3ccncn3)c3cnccn3)s2)no1 [Example BZ, N-(Pyrazin-2-yl)-N-({5-[5-(trifluoromethyl)-1,2,4-oxadiazol-3-yl]thiophen-2-yl}methyl)pyrimidin-4-amine]
> 10000 nM | 1 to 10 µM | > 10000 nM | ≥ 10 µM | CS(=O)(=O)c1ccc(N(Cc2ccc(-c3noc(C(F)(F)F)n3)s2)c2cnccn2)nn1 [Example DL, 6-Methanesulfonyl-N-(pyrazin-2-yl)-N-({5-[5-(trifluoromethyl)-1,2,4-oxadiazol-3-yl]thiophen-2-yl}methyl)pyridazin-3-amine]

Reference: patent US20210038607A1, “OXADIAZOLYLTHIOPHENE DERIVATIVES USEFUL AS HISTONE DEACETYLASE INHIBITORS” (Karus Therapeutics Limited, priority 2018, published 2021)
